# Counter-ions that a name gives are not always drawn.
# Target: T1, active human Akt1 (Homo sapiens, UniProt P31749)
# T1 construct: Active human recombinant Akt1 (full-length) purified from Sf9 insect cells; purchased Upstate Biotechnology, Inc. 14-276; host or cells: Sf9 insect cells
# Assay: Akt1 Phosphorylation Assay (phosphocellulose filter-binding, 33P-Crosstide)
# Type: biochemical
# Settings: active human recombinant Akt1 (full-length) 10 nM; 12.5 μM Crosstide; 20 μM ATP; 30 minutes at room temperature
# Protocol: Akt1 Phosphorylation Assay
# The assay described measures the phosphorylation of Crosstide by active human Akt1 and other Akt isoforms. Crosstide contains a consensus sequence derived from Akt substrates GSK3b and forkhead transcription factors (FKs). The ^33P-labeled Crosstide substrate is captured by phosphocellulose membrane filter plates.
# Active human recombinant Akt1 (full-length) purified from Sf9 insect cells is from Upstate Biotechnology, Inc. (Cat. #14-276, 405 μg/ml). Crosstide substrate, NH2-GRPRTSSFAEG-COOH (M.W.1164) is purchased from Multiple Peptide System (Cat. # L59/GR145-153).
# Solution (A): 20% DMSO (dimethylsulphoxide) or Compound in 20% DMSO; Solution (B): Assay Buffer Mix: 31.25 μM Crosstide, 37.5 mM MgCl2, 87.5 mM HEPES, pH 7.3, 50 μM ATP γ-^33P-ATP, 0.05 μCi/μl; Solution (C): Akt Kinase Mix: 31.25 mM HEPES, pH 7.3; 1 mM DTT, 25 nM UBI Akt1.
# Procedure for Phosphocellulose Filter-Binding Assay
# Ten μl of Solution (A) are first mixed with 20 μl Solution (B). The enzymatic reaction is initiated by adding 20 μl Solution (C) to the mixture. (Final concentration or amount in a 50-μl reaction mix: 4% DMSO or various compound concentration in 4% DMSO; 12.5 μM Crosstide; 15 mM MgCl2; 35 mM HEPES, pH7.3; 20 μM ATP; 1 μCi γ-^33P-ATP; 0.4 mM DTT; 10 nM UBI Akt1.) The reactions are performed in 96-well microtiter plates.
# After 30 minutes at room temperature, the reaction is terminated by adding 80 μl of 10% H3PO4. An aliquot of 100 μl from each well is transferred to the phosphocellulose filter plate (Millipore MultiScreen, Catalog #MAPHN0B50). After 30 minutes, the reaction mix is filtered with a Millipore manifold following by 3 washes with 0.5% H3PO4. The filter is then vacuum-dried and the plate is fitted onto a Packard carrier. 100 μl/well Microscint20 are added and the contents are counted in a Packard Top Count.
# T1 sequence (P31749 whole entry): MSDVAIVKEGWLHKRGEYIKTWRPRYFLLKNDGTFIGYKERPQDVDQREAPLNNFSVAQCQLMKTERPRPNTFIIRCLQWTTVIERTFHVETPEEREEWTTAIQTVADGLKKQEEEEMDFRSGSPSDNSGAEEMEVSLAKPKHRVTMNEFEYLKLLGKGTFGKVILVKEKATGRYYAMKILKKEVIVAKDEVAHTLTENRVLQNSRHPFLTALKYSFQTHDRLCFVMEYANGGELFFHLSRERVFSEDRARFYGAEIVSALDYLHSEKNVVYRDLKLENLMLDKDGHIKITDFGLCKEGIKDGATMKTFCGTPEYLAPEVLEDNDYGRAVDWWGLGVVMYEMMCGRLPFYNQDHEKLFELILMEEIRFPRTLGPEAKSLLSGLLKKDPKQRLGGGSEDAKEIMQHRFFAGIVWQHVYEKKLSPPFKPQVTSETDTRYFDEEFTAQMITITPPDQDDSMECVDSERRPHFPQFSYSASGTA
row,Structure (SMILES),IC50 [nM]
1,"CN1CCN(c2cc(Cl)ccc2CCCNCCNS(=O)(=O)c2cc(-c3ccccc3)cc3cnccc23)CC1 [Example 49, 7-Phenyl-isoquinoline-5-sulfonic acid {2-[3-(4-chloro-2-(4-methyl-piperazin-1-yl)-phenyl)-propylamino]-ethyl}-amide, tetrahydrochloride salt]",≤ 2000
2,"O=[N+]([O-])c1ccc(C(O)CCNCCNS(=O)(=O)c2cc(-c3ccccc3)cc3cnccc23)cc1 (stereo not drawn) [Example 73, 7-Phenyl-isoquinoline-5-sulfonic acid [2-(3-hydroxy-3-(4-nitrophenyl)-propylamino)-ethyl]-amide, dihydrochloride salt]",≤ 2000
3,"N#Cc1ccc(CC(O)CNCCNS(=O)(=O)c2cc(-c3ccccc3)cc3cnccc23)cc1 (stereo not drawn) [Example 111, 7-Phenyl-isoquinoline-5-sulfonic acid {2-[3-(4-cyano-phenyl)-2-hydroxy-propylamino]-ethyl}-amide, dihydrochloride salt, dihydrochloride salt, dihydrochloride salt, dihydrochloride …]",≤ 2000
4,"O=S1(=O)CCN(c2cc(Cl)ccc2CCCNCCNS(=O)(=O)c2cc(-c3ccccc3)cc3cnccc23)CC1 [Example 52, 7-Phenyl-isoquinoline-5-sulfonic acid {2-[3-(4-chloro-2-(1,1-dioxo-thiomorpholin-4-yl)-phenyl)-propylamino]-ethyl}-amide, trihydrochloride salt]",≤ 2000
5,"Nc1cccc(-c2cc(S(=O)(=O)NCCNCCCc3ccc([N+](=O)[O-])cc3)c3ccncc3c2)c1 [Example 92, 7-(3-aminophenyl)-isoquinoline-5-sulfonic acid [2-(3-(4-nitrophenyl)-propylamino)-ethyl]-amide, trihydrochloride salt]",≤ 2000

# More lines, now with the values ahead:
row,IC50 [nM],Structure (SMILES)
1,≤ 2000,"O=[N+]([O-])c1ccc(CCCNCCNS(=O)(=O)c2cc(-c3cccc(O)c3)cc3cnccc23)cc1 [Example 99, 7-(3-hydroxy-phenyl)-isoquinoline-5-sulfonic acid {2-[3-(4-nitro-phenyl)-propylamino]-ethyl}-amide, dihydrochloride salt]"
2,≤ 2000,"O=[N+]([O-])c1ccc(CCCNCCNS(=O)(=O)c2cc(-c3ccccc3)cc3cnccc23)cc1 [Example 3, 7-Phenyl-isoquinoline-5-sulfonic acid {2-[3-(4-nitrophenyl)-propylamino]-ethyl}-amide, dihydrochloride salt]"
3,≤ 2000,"O=S(=O)(NCCNCCCc1cccc(Cl)c1Cl)c1cc(-c2ccccc2)cc2cnccc12 [Example 66, 7-Phenyl-isoquinoline-5-sulfonic acid {2-[3-(2,3-dichlorophenyl)-propylamino]-ethyl}-amide, dihydrochloride salt]"
4,≤ 2000,"O=S(=O)(NCCNCCCc1ccc(O)cc1)c1cc(-c2ccccc2)cc2cnccc12 [Example 19, 7-Phenyl-isoquinoline-5-sulfonic acid {2-[3-(4-hydroxyphenyl)-propylamino]-ethyl}-amide, dihydrochloride salt]"
5,≤ 2000,"O=C(Nc1ccc(CCCNCCNS(=O)(=O)c2cc(-c3ccccc3)cc3cnccc23)cc1)C1CC1 [Example 25, 7-Phenyl-isoquinoline-5-sulfonic acid {2-[3-(4-(cyclopropyl-carbonylamino)phenyl)-propylamino]-ethyl}-amide, dihydrochloride salt]"
6,≤ 2000,"CC(=O)Nc1ccc(CCCNCCNS(=O)(=O)c2cc(-c3ccccc3)cc3cnccc23)cc1 [Example 28, 7-Phenyl-isoquinoline-5-sulfonic acid {2-[3-(4-acetamidophenyl)-propylamino]-ethyl}-amide, dihydrochloride salt]"
7,≤ 2000,"O=[N+]([O-])c1ccc(CCCNCCNS(=O)(=O)c2cc(-c3ccc(O)cc3)cc3cnccc23)cc1 [Example 98, 7-(4-hydroxy-phenyl)-isoquinoline-5-sulfonic acid {2-[3-(4-nitro-phenyl)-propylamino]-ethyl}-amide, dihydrochloride salt]"

# Source: patent US7449477B2, “7-phenyl-isoquinoline-5-sulfonylamino derivatives as inhibitors of akt (protein kinase B)” (Eli Lilly and Company, priority 2003, dated 2008)
